Measurements taken from US5108916A, “Process for stereoselectively hydrolyzing, transesterifying or esterifying with immobilized isozyme of lipase from Candida rugosa” (priority 1989, dated 1992).
Several values for one entry are separate records, joined by “and”; a condition that tells them apart may be missing. Equal values may be shown once. Read-outs that look alike come from different tables or passages of the source.

What was measured:
[1] = Conversion of ketoprofen esters in organic solvent/oleic acid media; assay type: biochemical
Procedure: To optimize the organic solvent used in the presence of oleic acid a variety of organic solvents were used, along with a variety of ketoprofen esters. In this experiment, 50 mg of ketoprofen esters were weighed into flasks, along with 1 ml of oleic acid and 9 ml of an organic solvent. The flasks were capped and incubated at 35° C., 250 rpm, for 10-26 hours before stopping the reaction by first adding 4 ml CHCl3 to solubilize the substrates and products, then filtering through a 0.2 um Gelman Nylaflo filter. Samples were then diluted in methanol and analyzed by HPLC as in Example 18. The experiment was also performed using 200 ul of oleic acid and 10ml buffer, which was acidified, extracted with CHCl3 and analyzed by HPLC as above.
One ml of oleic acid was added, as was 9 ml of buffer (100 mM (NH4)H2 PO4, pH 5.5) or organic solvent. Flasks were placed into a 35° C. incubator and shaken at 250 rpm for 13 hours. Reaction was stopped by adding 5 ml CHCl3 to solubilize the organic material and filtering the solutions using 0.2 um Gelman Nylaflo membranes to remove the enzyme. Samples were analyzed on an ODS-3 RAC column using CH3 OH:10 mM (NH4)H2PO4 (60:40) as eluant, flow rate 4 ml/min, and detection at 254 nm. %ee was determined by the resolution of diastereomeric amides on the above HPLC system, as per Example 18.

CSC-2 = assay: Effect of additives and solvents on hydrolysis of ketoprofen monoglyceride by CSC-2; assay type: biochemical, Candida rugosa
Procedure: Hydrolysis of ketoprofen-monoglyceride (50mg) was carried out in various DMF-100mM (NH4)H2 PO4 buffer (pH 5.5) mixtures. In each flask a solution of ketoprofen monoglyceride (50mg) in DMF (200ul) was added. DMF was added followed by 100mM (NH4)H2 PO4 buffer. […] After 22 hours, 2%, 5%, and 10% DMF samples were acidified, extracted with CHCl3 (2×10ml) and analyzed. The other samples were analyzed directly as in Example 18. The acid produced decreases with increasing amount of DMF.
Small amounts of DMF were added to the reaction mixture to increase the solubility of KPG. In all cases 100mM ammonium phosphate buffer (pH 5.5) was used and 2% (v/v) detergents were added and the total volume was 10ml.
The buffer reaction (entry #2 in the table) contained enzyme in buffer (2 ml) and the buffer only (entry #1 in the table) reaction contained no enzyme.
The presence of a surfactant like Tween increases the solubility o lipophilic compounds in water. […] Tween 80 was added to make 1% and 2% solution (v/v). Bovine serum albumin (BSA) (10mg) was added to each of two flasks. A solution of 50mg of ketoprofen monoglyceride in 200ul DMF was added to each. After 20 hours at 250 rpm and 35° C. the reaction mixtures were acidified, extracted and analyzed by the usual HPLC procedure as in Example 18.
Various surfactants were used at 2% of the reaction volume to determine their effect on the enzymatic reaction involving the conversion of ketoprofen monoglyceride (KPG) to ketoprofen (KP). […] Flasks were covered with parafilm and incubated in a 35° C. water bath at 250 rpm, typically overnight. Reactions were stopped by acidification, extracted with CHCl3 (2×10 ml). The %acid and %ee were determined by the method of Example 18. It is to be noted that Hydrophile-Lipophile Balance (HLB) values have no apparent bearing on the ability of the surfactant to enhance the conversion of KPG to KP.
75 mg of KPG (in the absence of DMF) was individually weighed into 50 ml Erlenmeyer flasks. […] 9 ml of 100 mM (NH4)H2 PO4, pH 5.5 buffer was added, and the flasks were placed into a 35° C., 250 rpm water bath incubator for 20 hours. The reactions were acidified, extracted with CHCl3 and examined by HPLC as in Example 18. The %ee was determined as per Example 18.
Various amounts of oleic acid or its esters were added, and the reactions stopped at the times indicated, acidified, extracted with CHCl3 and analyzed as in Example 18.
An experiment was performed as in Example 41, but using 100, 200 and 500 ul of olive oil to determine if it would enhance the rate of conversion of KPG to KP. […] After 20 hours, all reactions were acidified, extracted with CHCl3 and analyzed by HPLC as in Example 18. The results are given below:
50 mg of KPG was weighed into Erlenmeyer flasks. […] Flasks were incubated at 35° C., 250 rpm for 23 hours. The reactions were stopped by acidification, extracted with CHCl3, and analyzed by HPLC as in Example 18. The additive is listed along with its percentage composition of glycerides of oleic acid.
To determine the problems associated with having oleic acid or oleate. esters in the reaction media, the following experiment was performed. […] Flasks were placed in a 35° C. incubator at 250 rpm, and the reactions were sampled by taking 200 ul aliquots at various time points. These aliquots were analyzed by HPLC (ODS-3 RAC column, CH3 OH: 10 mM (NH4)H2 PO4 (60:40) eluant, 4 ml/min, 254 nm detection) to determine the course of reaction. When approximately 40% acid was produced, the reactions were stopped by placing the flasks in the -70° C. freezer. Two extraction procedures were utilized to determine the best method of isolating S-Ketoprofen free of oleic acid. The first (listed as Extraction Procedure I in the following table) involved first making the solution basic (pH 10) with NaOH, then extracting with hexane, then CHCl3.

Lipase MY = assay: Two phase Lipase MY hydrolysis of HPPA-Me in organic solvent/water mixtures; assay type: biochemical, Candida rugosa
Procedure: A. 75% organic solvent/25% aqueous buffer--Fifty milligrams of R,S-HPPA-Me was combined in 10 ml Scintillation vial with 7.5 ml of organic solvent, 2.5 ml of 50 mM phosphate buffer pH 6.0, and 5 mg Lipase MY. The reactions were placed on shaker and shaken for a period of 0-43 hours with samples being taken at various times.
B. 25% organic solvent/75% aqueous buffer--Fifty milligrams of R,S-HPPA-Me was combined, in 10 ml Scintillation vial with 2.5 ml of organic solvent, 7.5 ml 50mM phosphate buffer (pH 6.8), and 5 mg Lipase MY. The reactions were shaken for a period of 0-143 hours with samples being taken at various time points.
The data in Table 2 represents the % conversion and % R-HPPA produced using the indicated organic solvents in a two-phase system wherein 75% […] of the total vehicle (solvent) was water and the balance (25%) was organic solvents.

[2] = solvent/buffer 1:1 two phase, 26 hours
[3] = solvent/buffer 1:1 two phase, 26 hours, buffer = 100
[4] = KPG 50 mg, 100 mg CSC-2 on silica (279-SD-1), 9 ml solvent (or buffer)/1 ml oleic acid, 13 hours

Compound: CCCCCC [Hexane]
- % Acid [1]: 12% and 16%
- % ee S-acid [1]: 94% and 87%
- EE of S-acid (CSC-2): 93%
- Relative Rate (CSC-2; pH 5.5, 1560 min): 80

Compound: xylenes
- EE of S-acid (CSC-2; [2]): 81%
- Relative Rate (CSC-2; [3]): 44
- % R (Lipase MY; solvent 25%, 5.3 hr): 100%
- Conversion (ester/acid) (Lipase MY; solvent 25%, 5.3 hr): 49%
- % R (Lipase MY; solvent 75%, 5.36 hr): 89%
- Conversion (ester/acid) (Lipase MY; solvent 75%, 5.36 hr): 41%

Compound: C1CCCCC1 [cyclohexane]
- % Acid ([1]; KPEG 50 mg, as E212): 29%
- % ee S-acid ([1]; KPEG, as E212): 83%
- % Acid [1, 4]: 38%
- % ee S-acid ([1]; KPG, as E212): 98%
- EE of S-acid (CSC-2; [2]): 95%
- Relative Rate (CSC-2; [3]): 185
- % R (Lipase MY; solvent 25%, 2.7 hr): 100%
- Conversion (ester/acid) (Lipase MY; solvent 25%, 2.7 hr): 35%
- % R (Lipase MY; solvent 75%, 2.7 hr): 83%
- Conversion (ester/acid) (Lipase MY; solvent 75%, 2.7 hr): 31%

Compound: ClC(Cl)=C(Cl)Cl [tetrachloroethylene]
- % Acid ([1]; KPEG 50 mg, as E212): 0%
- % ee S-acid ([1]; KPEG, as E212): 0%
- % Acid [1, 4]: 1%
- % ee S-acid ([1]; KPG, as E212): 0%
- EE of S-acid (CSC-2; [2]): 27%
- Relative Rate (CSC-2; [3]): 3
- % R (Lipase MY; solvent 25%, 5.3 hr): 83%
- Conversion (ester/acid) (Lipase MY; solvent 25%, 5.3 hr): 61%
- % R (Lipase MY; solvent 75%, 5.3 hr): 85%
- Conversion (ester/acid) (Lipase MY; solvent 75%, 5.3 hr): 58%

Compound: c1ccc2c(c1)CCCC2 [1,2,3,4-Tetrahydronapthalene]
- % Acid ([1]; KPEG 50 mg, as E212): 1%
- % ee S-acid ([1]; KPEG, as E212): 1%
- % Acid [1, 4]: 2%
- % ee S-acid ([1]; KPG, as E212): 68%
- EE of S-acid (CSC-2; [2]): 85%
- Relative Rate (CSC-2; [3]): 136

Compound: Cc1ccccc1 [toluene]
- EE of S-acid (CSC-2; [2]): 58%
- Relative Rate (CSC-2; [3]): 15
- % R (Lipase MY; solvent 25%, 2.7 hr): 100%
- % R (Lipase MY; solvent 75%, 2.7 hr): 90%
- Conversion (ester/acid) (Lipase MY; solvent 75%, 2.7 hr): 25%

Compound: BrCCBr [1,2-dibromoethane]
- % R (Lipase MY; solvent 25%, 43 hr): 73%
- Conversion (ester/acid) (Lipase MY; solvent 25%, 43 hr): 33%
- % R (Lipase MY; solvent 75%, 43 hr): 57%
- Conversion (ester/acid) (Lipase MY; solvent 75%, 43 hr): 23%

Compound: Fc1ccccc1 [fluorobenzene]
- % R (Lipase MY; solvent 25%, 5.3 hr): 95%
- Conversion (ester/acid) (Lipase MY; solvent 25%, 5.3 hr): 40%
- % R (Lipase MY; solvent 75%, 5.3 hr): 86%
- Conversion (ester/acid) (Lipase MY; solvent 75%, 5.3 hr): 29%

Compound: COC(=O)C(C)c1cccc(C(=O)c2ccccc2)c1 (stereo not shown) [Methyl ester]
- % ee ([1]; Buffer 10 ml, OA 200 ul): 96%
- % Acid ([1]; Buffer 10 ml, OA 200 ul, enzyme not named in Example 55): 2%
- % Acid ([1]; CHCl3 9 ml, OA 1 ml): 0%
- % Acid ([1]; Hexane 9 ml, OA 1 ml, 10-26 hours): 0.8%
- % Acid ([1]; Isooctane 9 ml, OA 1 ml): 2%
- % ee ([1]; Isooctane 9 ml, OA 1 ml, * stopped at 10 Hr): 93%
- % Acid ([1]; Toluene 9 ml, OA 1 ml): 0%

Compound: CC(C)CC(C)(C)C [Isooctane]
- % Acid ([1]; KPEG 50 mg, as E212): 48%
- % ee S-acid ([1]; KPEG, as E212): 97%
- % Acid [1, 4]: 39%
- % ee S-acid ([1]; KPG, as E212): 98%
- EE of S-acid (CSC-2; [2]): 96%
- Relative Rate (CSC-2; [3]): 214

Compound: CC(C)=O [acetone]
- % R (Lipase MY): 0%
- Conversion (ester/acid) (Lipase MY): 0%
